How the values were obtained:
[1] = test system: Muscle bind like protein 1 (MBNL1); test: MBNL1 quantification in human skeletal muscle cells by TR-FRET (Examples 7, 19); format: cell-based; details: hSkMc (Innoprot), 0.5 mg/ml, 48 hours, normalized to total protein
Description: MBNL1 induction by the peptides of the invention is evaluated by a Time resolved fluorescence resonance energy transfer (TR-FRET) assay. The aim of this study is to investigate the capacity of peptide candidates to increase MBNL1 in human skeletal muscle cells (hSkMc).
hSkMc (Innoprot) are seeded in 12-well plates at a density of 1.5×10^4 cells/well in Skeletal Muscle Cell Growth Medium (Promocell). After 72 hours incubation, medium is removed and replaced with Skeletal Muscle Cell Differentiation Medium (Promocell). 48 hours after beginning cell differentiation, fresh differentiation medium with 0.5 mg/ml of test items is added. Treatment is continued for 48 hours and non-treated cells are used as basal control. After 48 hours of treatment, cell medium is removed and added cell lysis buffer to wells. Immediately, plates are kept at −80° C. in order to improve protein extraction during the defrosting process. After 72 hours, cells are lysated by shaking the plates in an orbital rotor at room temperature for 45 minutes. Next, cell lysates are collected and assayed to quantify the level of MBNL1 protein and total protein concentration.
MBNL1 protein levels measurement is performed with Human MBNL1 Assay Kit (Cisbio) according to the manufacturer's protocol. Briefly, the kit is used to perform a TR-FRET for MBNL1 quantification. The protein is detected with the antibodies provided in the kit and quantified by a fluorescence measurement. The quantification is carried out by using a microplate reader (ClarioStar, BMG) set to 665 nm and 620 nm.
Total protein concentration of cell lysate is determined by using Pierce BCA Protein Assay Kit™ (Thermo Scientific) according to manufacturer's protocol. In brief, after adding Working Reagent to the samples and the standards, the samples are incubated. Afterwards, color change is measured with an absorbance microplate reader (Clariostar™, BMG) at 562 nm. The total protein amount is used to normalize the level of MBNL1 protein concentration obtained by the TR-FRET test in the samples.
Different peptides of the invention are tested as disclosed in Example 7 at 0.5 mg/mL.

[2] = test system: Muscle bind like protein 1 (MBNL1); test: MBNL1 quantification in human dermal fibroblasts by immunofluorescence (Example 8); format: cell-based; details: HDF, 1, 0.5 and 0.01 mg/ml, 24 hours, nuclear fluorescence normalized by nuclei
Description: MBNL1 induction by the peptides of the invention is evaluated by an Immunofluorescence assay. The aim of this study is to investigate the capacity of peptide candidates to increase MBNL1 in human dermal fibroblasts (HDF).
HDF (Cascade) are seeded in 96-well plates at a density of 8×10^3 cells/well in Fibroblast Growth Medium (Promocell). After 48 hours incubation, medium is removed and fresh medium with 1, 0.5 and 0.01 mg/ml of test items is added. Treatment is continued for 24 hours and non-treated cells are used as basal control. After 24 hours of treatment, an immunofluorescence is performed. Cells are fixed 15 minutes with 4% Paraformaldehide (Sigma), permeated 15 minutes with 1% Triton X-100 (Sigma) and then blocked with 5% Bovine Serum Albumin (Sigma). Next, primary antibody Anti-MBNL1 Rabbit (Sigma) is added and incubated for 2 hours. After that, secondary antibody Alexa Fluor™ 488 goat anti-rabbit IgG (Life Technologies) is added and incubated for 1 hour. To stain nuclei, Hoechst (Life Technologies) is added and incubated for 10 minutes. Finally, MBNL1 cell nuclei fluorescence intensity and nuclei number are measured by Operetta™ (Perkin Elmer). Fluorescence is normalized by cell nuclei and results are represented respect to basal control.

Ac-Asp-Val-Tyr-Lys-NH2 (Ac-DVYK-NH2) [PEP1]
MBNL1 levels compared to the basal control [1]: increase MBNL1 levels | MBNL1 levels compared to the basal control [2]: increase MBNL1 levels

H-Ala-Leu-Lys-Pro-Asn-Thr-NH2 (H-ALKPNT-NH2) [PEP2]
MBNL1 levels compared to the basal control [1]: increase MBNL1 levels | MBNL1 levels compared to the basal control [2]: increase MBNL1 levels
